Each molecule was assayed on LXRα and/or LXRβ (assay: Co-transfection assay (LXRE luciferase reporter, CV-1 cells)). Settings: tested as described in Example 33; IC50 or EC50 for LXRα and/or LXRβ, isoform not specified; read-out: activity (IC50 or EC50 for LXR).
Format: cell-based, human
Method in brief: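 CV-1 cells transiently co-transfected with full-length human LXRα or LXRβ plus RXRα, an LXRE×1-Tk-luciferase reporter and a β-galactosidase control. Compounds incubated 20 h at 37 °C (≤1% DMSO; screen at 10 μM final); luciferase read after lysis. EC50/IC50 from 8-point half-log curves (4 wells per point, ≥3 experiments); efficacy relative to a reference agonist high control and DMSO.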

`CC(C)(O)c1cn(-c2ccc(-c3cccc(S(C)(=O)=O)c3)cc2F)c(-c2ccccc2C(F)(F)F)n1` [Example 109, 2-(1-(3-fluoro-3′-(methyl-sulfonyl)biphenyl-4-yl)-2-(2-(trifluoromethyl)phenyl)-1H-imidazol-4-yl)propan-2-ol] and `CCS(=O)(=O)c1cccc(-c2ccc(-n3cc(C(C)(C)O)nc3-c3ccccc3C(F)(F)F)c(F)c2)c1` [Example 110, 2-(1-(3′-(ethylsulfonyl)-3-fluoro-biphenyl-4-yl)-2-(2-(trifluoromethyl)phenyl)-1H-imidazol-4-yl)propan-2-ol] cannot be ordered by IC50 or EC50 (potency, activation or inhibition): under 1000 nM for the first, under 1000 nM for the second.

`CC(C)(O)c1cn(-c2ccc(-c3cccc(S(C)(=O)=O)c3)c(F)c2)c(-c2ccccc2C(F)(F)F)n1` [Example 111, 2-(1-(2-fluoro-3′-(methyl-sulfonyl)biphenyl-4-yl)-2-(2-(trifluoromethyl)phenyl)-1H-imidazol-4-yl)propan-2-ol] and `CCS(=O)(=O)c1cccc(-c2ccc(-n3cc(C(C)(C)O)nc3-c3ccccc3C(F)(F)F)cc2F)c1` [Example 112, 2-(1-(3′-(ethylsulfonyl)-2-fluoro-biphenyl-4-yl)-2-(2-(trifluoro-methyl)phenyl)-1H-imidazol-4-yl)propan-2-ol] cannot be ordered by IC50 or EC50 (potency, activation or inhibition): under 1000 nM for the first, under 1000 nM for the second.

`CC(C)(O)c1cn(-c2ccc(-c3cccc(S(C)(=O)=O)c3)cc2F)c(-c2cccc(Cl)c2Cl)n1` [Example 113, 2-(2-(2,3-dichlorophenyl)-1-(3-fluoro-3′-(methylsulfonyl)biphenyl-4-yl)-1H-imidazol-4-yl)propan-2-ol] and `CCS(=O)(=O)c1cccc(-c2ccc(-n3cc(C(C)(C)O)nc3-c3cccc(Cl)c3Cl)c(F)c2)c1` [Example 114, 2-(2-(2,3-dichlorophenyl)-1-(3′-(ethylsulfonyl)-3-fluorobiphenyl-4-yl)-1H-imidazol-4-yl)propan-2-ol] cannot be ordered by IC50 or EC50 (potency, activation or inhibition): under 1000 nM for the first, under 1000 nM for the second.

`CC(C)(O)c1cn(-c2ccc(-c3cccc(S(C)(=O)=O)c3)cc2F)c(-c2c(Cl)cccc2Cl)n1` [Example 115, 2-(2-(2,6-dichlorophenyl)-1-(3-fluoro-3′-(methylsulfonyl)biphenyl-4-yl)-1H-imidazol-4-yl)propan-2-ol] and `CCS(=O)(=O)c1cccc(-c2ccc(-n3cc(C(C)(C)O)nc3-c3c(Cl)cccc3Cl)c(F)c2)c1` [Example 116, 2-(2-(2,6-dichlorophenyl)-1-(3′-(ethylsulfonyl)-3-fluorobiphenyl-4-yl)-1H-imidazol-4-yl)propan-2-ol] cannot be ordered by IC50 or EC50 (potency, activation or inhibition): under 1000 nM for the first, under 1000 nM for the second.

`CC(C)(O)c1cn(-c2ccc(-c3ccc(CO)c(S(C)(=O)=O)c3)cc2F)c(-c2cccc(Cl)c2Cl)n1` [Example 117, 2-(2-(2,3-dichlorophenyl)-1-(3-fluoro-4′-(hydroxymethyl)-3′-(methyl-sulfonyl)biphenyl-4-yl)-1H-imidazol-4-yl)propan-2-ol] and `Cc1c(Cl)cccc1-c1nc(C(C)(C)O)cn1-c1ccc(-c2ccc(CO)c(S(C)(=O)=O)c2)cc1F` [Example 120, 2-(2-(3-chloro-2-methylphenyl)-1-(3-fluoro-4′-(hydroxymethyl)-3′-(methylsulfonyl)biphenyl-4-yl)-1H-imidazol-4-yl)propan-2-ol] cannot be ordered by IC50 or EC50 (potency, activation or inhibition): under 1000 nM for the first, under 1000 nM for the second.

`Cc1c(Cl)cccc1-c1nc(C(C)(C)O)cn1-c1ccc(-c2cccc(S(C)(=O)=O)c2)cc1F` [Example 118, 2-(2-(3-chloro-2-methylphenyl)-1-(3-fluoro-3′-(methylsulfonyl)biphenyl-4-yl)-1H-imidazol-4-yl)propan-2-ol] and `CCS(=O)(=O)c1cccc(-c2ccc(-n3cc(C(C)(C)O)nc3-c3cccc(Cl)c3C)c(F)c2)c1` [Example 119, 2-(2-(3-chloro-2-methylphenyl)-1-(3′-(ethylsulfonyl)-3-fluorobiphenyl-4-yl)-1H-imidazol-4-yl)propan-2-ol] cannot be ordered by IC50 or EC50 (potency, activation or inhibition): under 1000 nM for the first, under 1000 nM for the second.

`CC(C)(O)c1cn(-c2ccc(-c3ccc(CO)c(S(C)(=O)=O)c3)cc2F)c(-c2ccccc2C(F)(F)F)n1` [Example 121] and `CC(C)(O)c1cn(-c2ccc(-c3ccc(CO)c(S(C)(=O)=O)c3)cc2Cl)c(-c2ccccc2C(F)(F)F)n1` [Example 139, 2-(1-(3-chloro-4′-(hydroxymethyl)-3′-(methylsulfonyl)biphenyl-4-yl)-2-(2-(trifluoromethyl)phenyl)-1H-imidazol-4-yl)propan-2-ol] cannot be ordered by IC50 or EC50 (potency, activation or inhibition): under 1000 nM for the first, under 1000 nM for the second.

First: CC(C)(O)c1cn(-c2ccc(-c3ccc(CO)c(S(C)(=O)=O)c3)cc2F)c(-c2c(Cl)cccc2Cl)n1 [Example 122, 2-(2-(2,6-dichlorophenyl)-1-(3-fluoro-4′-(hydroxymethyl)-3′-(methylsulfonyl)biphenyl-4-yl)-1H-imidazol-4-yl)propan-2-ol]
Second: CC(C)(O)c1cn(-c2ccc(-c3ccc(CO)c(S(C)(=O)=O)c3)cc2F)c(-c2c(F)cccc2Cl)n1 [Example 127, 2-(2-(2-chloro-6-fluorophenyl)-1-(3-fluoro-4′-(hydroxymethyl)-3′-(methylsulfonyl)biphenyl-4-yl)-1H-imidazol-4-yl)propan-2-ol]
The IC50 or EC50 (potency, activation or inhibition) of the first is lower: under 1000 nM for the first, 1000 to 10000 nM for the second.

`CC(C)(O)c1cn(-c2ccc(-c3cccc(S(C)(=O)=O)c3)cc2F)c(-c2cccc(F)c2Cl)n1` [Example 123, 2-(2-(2-chloro-3-fluorophenyl)-1-(3-fluoro-3′-(methylsulfonyl)biphenyl-4-yl)-1H-imidazol-4-yl)propan-2-ol] and `CCS(=O)(=O)c1cccc(-c2ccc(-n3cc(C(C)(C)O)nc3-c3cccc(F)c3Cl)c(F)c2)c1` [Example 124, 2-(2-(2-chloro-3-fluorophenyl)-1-(3′-(ethylsulfonyl)-3-fluorobiphenyl-4-yl)-1H-imidazol-4-yl)propan-2-ol] cannot be ordered by IC50 or EC50 (potency, activation or inhibition): under 1000 nM for the first, under 1000 nM for the second.

`CC(C)(O)c1cn(-c2ccc(-c3ccc(CO)c(S(C)(=O)=O)c3)cc2F)c(-c2cccc(F)c2Cl)n1` [Example 125, 2-(2-(2-chloro-3-fluorophenyl)-1-(3-fluoro-4′-(hydroxymethyl)-3′-(methylsulfonyl)biphenyl-4-yl)-1H-imidazol-4-yl)propan-2-ol] and `Cc1cccc(Cl)c1-c1nc(C(C)(C)O)cn1-c1ccc(-c2ccc(CO)c(S(C)(=O)=O)c2)cc1F` [Example 133, 2-(2-(2-chloro-6-methylphenyl)-1-(3-fluoro-4′-(hydroxymethyl)-3′-(methylsulfonyl)biphenyl-4-yl)-1H-imidazol-4-yl)propan-2-ol] cannot be ordered by IC50 or EC50 (potency, activation or inhibition): under 1000 nM for the first, under 1000 nM for the second.

`CCS(=O)(=O)c1cccc(-c2ccc(-n3cc(C(C)(C)O)nc3-c3c(F)cccc3Cl)c(F)c2)c1` [Example 126, 2-(2-(2-chloro-6-fluorophenyl)-1-(3′-(ethylsulfonyl)-3-fluorobiphenyl-4-yl)-1H-imidazol-4-yl)propan-2-ol] and `CCS(=O)(=O)c1cccc(-c2ccc(-n3cc(C(C)(C)O)nc3-c3c(C)cccc3Cl)c(F)c2)c1` [Example 129] cannot be ordered by IC50 or EC50 (potency, activation or inhibition): under 1000 nM for the first, under 1000 nM for the second.

`Cc1cccc(Cl)c1-c1nc(C(C)(C)O)cn1-c1ccc(-c2cccc(S(C)(=O)=O)c2)cc1F` [Example 128, 2-(2-(2-chloro-6-methylphenyl)-1-(3-fluoro-3′-(methylsulfonyl)biphenyl-4-yl)-1H-imidazol-4-yl)propan-2-ol] and `CC(C)(O)c1cn(-c2ccc(-c3cccc(S(C)(=O)=O)c3)cc2F)c(-c2c(F)cccc2Cl)n1` [Example 134, 2-(2-(2-chloro-6-fluorophenyl)-1-(3-fluoro-3′-(methylsulfonyl)biphenyl-4-yl)-1H-imidazol-4-yl)propan-2-ol] cannot be ordered by IC50 or EC50 (potency, activation or inhibition): under 1000 nM for the first, under 1000 nM for the second.

`CC(C)(O)c1cn(-c2ccc(-c3cccc(S(C)(=O)=O)c3)cc2F)c(-c2c(F)cccc2F)n1` [Example 130, 2-(2-(2,6-difluorophenyl)-1-(3-fluoro-3′-(methylsulfonyl)biphenyl-4-yl)-1H-imidazol-4-yl)propan-2-ol] and `CCS(=O)(=O)c1cccc(-c2ccc(-n3cc(C(C)(C)O)nc3-c3c(F)cccc3F)c(F)c2)c1` [Example 131, 2-(2-(2,6-difluorophenyl)-1-(3′-(ethylsulfonyl)-3-fluorobiphenyl-4-yl)-1H-imidazol-4-yl)propan-2-ol] fall in the same range of IC50 or EC50 (potency, activation or inhibition): 1000 to 10000 nM for the first, 1000 to 10000 nM for the second.

`CC(C)(O)c1cn(-c2ccc(-c3cccc(S(C)(=O)=O)c3)cc2Cl)c(-c2ccccc2C(F)(F)F)n1` [Example 135, 2-(1-(3-chloro-3′-(methyl-sulfonyl)biphenyl-4-yl)-2-(2-(trifluoromethyl)phenyl)-1H-imidazol-4-yl)propan-2-ol] and `CCS(=O)(=O)c1cccc(-c2ccc(-n3cc(C(C)(C)O)nc3-c3ccccc3C(F)(F)F)c(Cl)c2)c1` [Example 136, 2-(1-(3-chloro-3′-(ethyl-sulfonyl)biphenyl-4-yl)-2-(2-(trifluoromethyl)phenyl)-1H-imidazol-4-yl)propan-2-ol] cannot be ordered by IC50 or EC50 (potency, activation or inhibition): under 1000 nM for the first, under 1000 nM for the second.

`CCS(=O)(=O)c1cccc(-c2ccc(-n3cc(C(C)(C)O)nc3-c3ccccc3Cl)c(Cl)c2)c1` [Example 137, 2-(1-(3-chloro-3′-(ethyl-sulfonyl)biphenyl-4-yl)-2-(2-chlorophenyl)-1H-imidazol-4-yl)propan-2-ol] and `CC(C)(O)c1cn(-c2ccc(-c3ccc(CO)c(S(C)(=O)=O)c3)cc2Cl)c(-c2ccccc2Cl)n1` [Example 138, 2-(1-(3-chloro-4′-(hydroxymethyl)-3′-(methylsulfonyl)biphenyl-4-yl)-2-(2-chlorophenyl)-1H-imidazol-4-yl)propan-2-ol] cannot be ordered by IC50 or EC50 (potency, activation or inhibition): under 1000 nM for the first, under 1000 nM for the second.

— US9000022B2 (Exelixis Patent Company LLC, priority 2005, dated 2015)
